For series [1] the following is noted: SCID, mouse, in vivo, iv.
For series [2] the following is noted: female, SCID, mouse, in vivo, iv.
The nature of series [3]: Dox-Hyd-C12 nanoparticles: plasma, liver and lung levels in female SCID mice. The conditions noted are these: Dox-Hyd-C12 nanoparticle study, about 2.2 mg-eq/kg IV.
Series [4] can be described thus: Dox-Hyd-C18 nanoparticles: plasma, liver and lung levels in female SCID mice. It is filed as in vivo. The conditions noted are these: about 1.8 mg-eq/kg IV.

Like-named read-outs stand apart in the source and are kept apart here.

In series [1], `Cn1c(CCCC(=O)O)nc2cc(N(CCCl)CCCl)ccc21` [Bendamustine, bendamustine] showed a tmax of 4.98 min. In series [2], the AUC0-t worked out at 566 ng·h/mL, the “AUC0-∞” value worked out at 589 ng·h/mL and the tmax was 0083 h.

`CCCCCCCCCCCCCCCCCC(=O)NN=C(CO)[C@]1(O)Cc2c(O)c3c(c(O)c2[C@@H](O[C@H]2C[C@H](N)[C@H](O)[C@H](C)O2)C1)C(=O)c1c(OC)cccc1C3=O` [Dox-Hyd-C18]: the “doxorubicin from hydrolysis of prodrug in tissue” value in series [3] was “detected in liver and lung tissue”. Further, in series [4], the “doxorubicin from hydrolysis of prodrug in tissue” value is “detected in liver and lung tissue”; the “time nanoparticles circulate in plasma” value is “up to 24 hours”.

The values above are taken from patent publication US11071789B2, “Pharmaceutical prodrugs and methods of their preparation and use” (CEPHALON, INC., priority 2016, dated 2021).
